# Assay results: a melting point compilation (Tetko et al.; mined from patent text by program, amines drawn as free bases though some values may be those of a salt)
row,Structure (SMILES),melting point [°C]
1,CC(=O)NN=C(c1ccccc1)c1cc(C(C)(C)C)c(O)c(C(C)(C)C)c1,205 to 206
2,CCCCc1nc2ccccc2c(=O)n1Cc1ccc(-c2ccccc2-c2nnn[nH]2)cc1,180 to 182
3,CCc1n[nH]c(CC)c1CCCCCOc1ccc(OC)cc1Cl,80 to 83
4,Cc1cnc(C2=NC(C)(C(C)C)C(=O)N2)c(C(=O)C(=O)N(C)c2ccccc2)c1 (centres undefined),153 to 156
5,Cc1cc2c3c(ccc(N4CCCC4)c3c1)C(=O)N(O)C2=O,236 to 237
6,O=C1Nc2ccccc2N2CCN(CCCc3ccncc3)CC12 (centres undefined),188 to 190
7,Cc1nc2ccc(N3C[C@H](C(N)c4nccs4)OC3=O)cc2s1 (some centres undefined),207
8,CCOCCOc1c(C2CCN(CCCCNC(=O)c3ccc(-c4ccc(C(F)(F)F)cc4)cc3)CC2)ccc2c1CCCC2,190
9,O=[N+]([O-])c1cc(Br)c(NS(=O)(=O)c2ccccc2)cc1Br,148
10,CC(C)=C1C(=O)N(c2ccc(O)cc2)C(=O)/C1=C(\C)c1c(C)n(C)c2ccccc12,231 to 233
11,N#CCN1CCC(=C2c3ccccc3CCn3ccnc32)CC1,220
12,CCOC(=O)c1cnoc1-c1ccc(Cl)cc1,58 to 60
13,COC(=O)Cc1cc(C(=O)c2ccc(C#Cc3ccccc3)c(N)c2)sc1-c1ccccc1,146 to 148
14,COCc1cc(-c2cc3c(cc2F)c(=O)c(C(=O)O)cn3C2CC2)cc(C)n1,192 to 193
15,O=C(NCCCn1ccnc1)c1ccco1,111 to 113
16,Nc1ccccc1C(=O)NN=Cc1c(O)ccc2ccccc12,188 to 191
17,O=C(O)CCC(=O)Nc1cc(C(=O)O)cc([N+](=O)[O-])c1,220 to 221
18,COc1cc(CCC2(C)OCc3c2cnc(C)c3O)cc(OC)c1OC (centres undefined),219
19,CCCOc1ccccc1-c1nc(NC(C)=O)cc(=O)[nH]1,230 to 231
20,O=C1Nc2cccnc2C(=O)N2CCCC12 (centres undefined),249 to 250
21,COc1cc2c(c3c1OC(C)(C)C3)C(c1cccc(Nc3ccccc3)c1)=NC(C)(C)C2,87 to 88
22,O=C(Nc1cccc(Cl)c1)N1CCN(C(=O)c2ccc(Nc3ccnc4cc(C(F)(F)F)ccc34)cc2)CC1,266 to 268
23,CC(COc1c(-c2ccccc2)c(=O)oc2c(Cl)cccc12)CN1CCOCC1 (centres undefined),120 to 122
24,O=[N+]([O-])CS(=O)(=O)c1c(F)c(F)cc(F)c1F,86 to 87
25,Cc1nc2ccc(N3CCN(CCCC(=O)c4ccc(F)cc4)CC3)nc2nc1C,155 to 156

row,Structure (SMILES),melting point [°C]
1,O=C1c2cc(Sc3ccccc3)c(Sc3ccccc3)cc2C(=O)c2c1c(O)c1cc(Sc3ccccc3)c(Sc3ccccc3)cc1c2O,> 260
2,COC(=O)c1cc(N)ccc1O,93 to 95
3,CCOC(=O)c1ccc(COc2cccc3oc(C)cc23)cc1,59 to 61
4,CCC(CO)(CO)Nc1ncc2cc(Oc3ccc(F)cc3F)ccc2n1,110 to 113
5,Nc1ccc(C(CC2CCCC2)C(=O)Nc2nccs2)cc1 (centres undefined),102 to 107
6,COc1cc(C2=C(c3c(-c4ccccc4)[nH]c4ccccc34)C(=O)NC2=O)cc(OC)c1OC,304
7,COC(=O)c1nc2sc(CC(C)C)c(C)c2c(=O)[nH]1,173 to 175
8,CCN(Cc1ccccc1)C(=O)Cn1c2cccc(OCc3ccccc3)c2c2c(COC)c(C(=O)OC(C)C)ncc21,142 to 144
9,O=C(NC1CCCCC1)c1c(O)c2cscc2[nH]c1=O,244
10,O=C(Nc1c([N+](=O)[O-])cnn1-c1c(Cl)cc(S(=O)(=O)C(F)(F)F)cc1Cl)C(Cl)Cl,138 to 142
11,CNC(=O)c1cc(C(=O)c2ccccc2)ccc1N,140
12,COc1ccc(C=Nc2ccccc2SCc2ncon2)cc1OC,146
13,CCN1c2ncccc2NC(=O)c2cc(CCc3ccccc3)cnc21,183 to 184
14,CCOC(=O)C(=O)Nc1cc(C#N)c(C#N)cc1[N+](=O)[O-],140 to 141
15,Cn1cc(C(=O)NCc2ccc(Cl)cc2)c(=O)c2sc(C=O)c(COCC[Si](C)(C)C)c21,174 to 176
16,COc1ccc2c(c1)CCC1CCNC(=O)C(CC(=O)NC(C)C)=C21 (centres undefined),213 to 216
17,O=C(NCc1ccccc1Br)c1ccc2cnccc2n1,129 to 130
18,COC(=O)C(O)C(NCc1ccccc1)c1ccc([N+](=O)[O-])cc1 (centres undefined),147 to 149
19,CC(C)(CC/C=C\[C@@H]1C[C@@H](NS(=O)(=O)c2ccc(Cl)cc2)CN1S(=O)(=O)c1ccc(Cl)cc1)C(=O)O,159 to 160
20,Cc1nc(NCC(=O)c2ccccc2)c2cc(C)sc2n1,159
21,CCc1c([N+](=O)[O-])c(C(N)=O)nn1C[C@@H]1CCCN1C(=O)OC(C)(C)C,68 to 75
22,Cc1cccc(C)c1NC(=O)CSc1cc(C(C)(C)C)c(O)c(C(C)(C)C)c1,138
23,Cc1ccc(C)n1-c1ccc2ccc3[nH]c(=O)c(=O)n(CC(=O)NCc4ccccc4)c3c2c1,243 to 244
24,CC(CN(C)C)N1c2ccccc2Sc2ccc(C(=O)NCc3cccs3)cc21 (racemic),135
